This note sets out measurements from patent US9387249B2, “Methods of treating hypertension with at least one angiotensin II receptor blocker and chlorthalidone” (Takeda Pharmaceutical Company Limited, priority 2008, dated 2016).

Holding throughout (type): in vivo, human
Series [1] has as its system patients with stage 2 hypertension. As to the kind of experiment: Phase 3 randomized double-blind study: safety (adverse events, laboratory tests). The text has this: More specifically, as will be discussed in more detail below, the purpose of this study is evaluate the change in 24-hour mean systolic blood pressure (SBP) by ambulatory blood pressure monitoring (ABPM) in response to (5-methyl-2-oxo-1,3-dioxol-4-yl)methyl 2-ethoxy-1-{[2′-(5-oxo-4,5-dihydro-1,2,4-oxadiazol-3-yl)biphenyl-4-yl]methyl}-1H-benzimidazole-7-carboxylate potassium salt plus chlorthalidone compared to placebo plus chlorthalidone for 6 weeks in subjects with uncontrolled essential hypertension. Subjects that qualify for the studied will be discontinued from their current antihypertensive medication. After a 2-week run-in-period, subjects who meet the entry criteria will be given (5-methyl-2-oxo-1,3-dioxol-4-yl)methyl 2-ethoxy-1-{[2′-(5-oxo-4,5-dihydro-1,2,4-oxadiazol-3-yl)biphenyl-4-yl]methyl}-1H-benzimidazole-7-carboxylate potassium salt plus chlorthalidone or placebo plus chlorthalidone once daily for 6 weeks. Blood pressure will be monitored during study visits and ABPM will be used to evaluate blood pressure for 24-hour periods twice during the study. Subjects will receive physical examinations including measurement of vital signs and blood and urine samples will be collected (for analyses related to safety monitoring during study visits). […]

Series [2] shares this test system. As to the kind of experiment: Phase 3 randomized double-blind study: change from baseline in 24-hour mean SBP by ambulatory blood pressure monitoring (ABPM). Particulars: Chlorthalidone 25 mg + placebo once daily, oral, 6 weeks. As to the method: (§1) This is a phase 3, multi-center, randomized, parallel group, double-blind, placebo-controlled, study to evaluate the efficacy and safety of (5-methyl-2-oxo-1,3-dioxol-4-yl)methyl 2-ethoxy-1-{[2′-(5-oxo-4,5-dihydro-1,2,4-oxadiazol-3-yl)biphenyl-4-yl]methyl}-1H-benzimidazole-7-carboxylate potassium salt when combined with chlorthalidone 25 mg once daily (QD) in subjects with uncontrolled essential hypertension.
(§2) More specifically, as will be discussed in more detail below, the purpose of this study is evaluate the change in 24-hour mean systolic blood pressure (SBP) by ambulatory blood pressure monitoring (ABPM) in response to (5-methyl-2-oxo-1,3-dioxol-4-yl)methyl 2-ethoxy-1-{[2′-(5-oxo-4,5-dihydro-1,2,4-oxadiazol-3-yl)biphenyl-4-yl]methyl}-1H-benzimidazole-7-carboxylate potassium salt plus chlorthalidone compared to placebo plus chlorthalidone for 6 weeks in subjects with uncontrolled essential hypertension. Subjects that qualify for the studied will be discontinued from their current antihypertensive medication. […] Blood pressure will be monitored during study visits and ABPM will be used to evaluate blood pressure for 24-hour periods twice during the study. […]

Series [3] has the same test system. As to the kind of experiment: Phase 3 randomized double-blind study: change in clinic SBP. Particulars: chlorthalidone plus placebo once daily. As to the method: as §1, §2

Take `CCOc1nc2cccc(C(=O)OCc3oc(=O)oc3C)c2n1Cc1ccc(-c2ccccc2-c2noc(=O)[nH]2)cc1.[K]` [Azilsartan medoxomil, (5-methyl-2-oxo-1,3-dioxol-4-yl)methyl 2-ethoxy-1-{[2′-(5-oxo-4,5-dihydro-1,2,4-oxadiazol-3-yl)biphenyl-4-yl]methyl}-1H-benzimidazole-7-carboxylate potassium salt]: the “Effect on the hypokalemia seen with chlorthalidone alone” value in series [1] (azilsartan medoxomil added to chlorthalidone) is recorded as “attenuated the hypokalemia”.
As to `NS(=O)(=O)c1cc(C2(O)NC(=O)c3ccccc32)ccc1Cl` (stereo not shown) [Chlorthalidone, 2-chloro-5-(1-hydroxy-3-oxo-1,2-dihydroisoindol-1-yl)-benzenesulfonamide], in series [2], the “Δ from baseline, mean, Absolute, Mean 24-Hour SBP by ABPM” value is listed as −15.9 mm Hg. Besides, the “Hypokalemia, frequency” value in series [1] (chlorthalidone plus placebo compared with chlorthalidone plus azilsartan medoxomil) was “more frequent”. In series [3], the “Absolute reduction in clinic SBP” value was −21.8 mm Hg.
